Measured values as given in patent US6710063B1, “Activators of PPAR delta” (SmithKline Beecham Corporation, priority 1999, dated 2004).
Structures can show the parent of a compound that is named as a salt.

Experiments:
[1] = Stability at ambient temperature (observation on isolated compound); assay type: physicochemical
Protocol: Example 37 was hydrolyzed as described in general procedure 3 to afford the title compound (45%) as a yellow solid: mp 124-126° C.; 1H-NMR (acetone-d6) δ 2.47 (s, 3H), 3.09 (s, 3H), 408(s, 2H), 5.25 (s, 2H), 6.70 (d, 2H), 6.91 (d, 2H), 7.83 (d, 2H), 8.16 (d, 2H); MS m/z 437(M+1)−.

obese rhesus monkeys = assay: 6-month dose escalation study in obese rhesus monkeys; assay type: in vivo, rhesus monkey
Protocol: The compound of Example 66 was examined in a Rhesus model. […] HDLc increased by more than 40% in each monkey at the 3 mg/kg dose. […] Serum TG concentrations decreased by more than 30% in each monkey. Fasting insulin decreased by more than 20% in each monkey. Serum fibrinogen concentrations decreased by 10 20%, with peak activity observed at doses of 0.3 and 1 mg/kg.

hPPARδ = target: T1, hPPARδ (Homo sapiens, UniProt Q03181); assay: Scintillation Proximity Assay (SPA) binding to PPAR ligand binding domain; settings: radioligand GW 2433 for PPARδ, receptor subtype not named in the result sentence, read-out: Apparent pKi (converted)
T1 construct: polyHis; made in house; host or cells: E. coli
T1 sequence (Q03181 211-439 limits assumed): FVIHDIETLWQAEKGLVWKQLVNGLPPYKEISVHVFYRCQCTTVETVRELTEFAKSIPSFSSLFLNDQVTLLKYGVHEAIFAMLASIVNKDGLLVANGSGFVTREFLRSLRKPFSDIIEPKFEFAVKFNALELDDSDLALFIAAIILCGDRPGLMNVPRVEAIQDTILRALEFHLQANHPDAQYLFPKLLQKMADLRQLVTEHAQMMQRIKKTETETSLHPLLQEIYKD
Protocol: Compounds were tested for their ability to bind to hPPARγ hPPARα, or PPARδ using a Scintillation Proximity Assay (SPA). The PPAR ligand binding domain (LBD) was expressed in E. coli as polyHis tagged fusion proteins and purified. The LBD was then labeled with biotin and immobilized on streptavidin-modified scintillation proximity beads. The beads were then incubated with a constant amount of the appropriate radio ligand (^3H-BRL 49653 for PPARγ, 2-(4-(2-(2,3-Ditritio-1-heptyl-3-(2,4-difluorophenyl)ureido)ethyl)phenoxy)-2-methylbutanoic acid (described in WO/008002) for hPPARα and GW 2433 (see Brown, P. J et al. Chem. Biol. 1997, 4, 909-918. For the structure and synthesis of this ligand) for PPARδ) and variable concentrations of test compound, and after equilibration the radioactivity bound to the beads was measured by a scintillation counter. The amount of nonspecific binding, as assessed by control wells containing 50 μM of the corresponding unlabelled ligand, was subtracted from each data point. For each compound tested, plots of ligand concentration vs. CPM of radio ligand bound were constructed and apparent Ki values were estimated from nonlinear least squares fit of the data assuming simple competitive binding. […]

Row | melting point [°C] | SMILES | also measured
1 | 189 to 191 | Cc1nc(-c2ccc(C(F)(F)F)cc2)oc1COc1ccc(CC(=O)O)cc1Cl (as salt: salt) [Example 50, 2-[3-Chloro-4-({4-methyl-2-[4-(trifluoromethyl)phenyl]-1,3-oxazol-5-yl}methoxy)phenyl]acetic Acid] | –
2 | > 250 | Cc1cc(SCc2sc(-c3ccc(Br)cc3)nc2C)ccc1OCC(=O)O [Example 69, 2-{2-Methyl-4-[({4-methyl-2-[4-bromophenyl]-1,3-thiazol-5-yl}methyl)sulfanyl]phenoxy}acetic Acid] | –
3 | 190 | Cc1nc(-c2ccc(C(F)(F)F)cc2)sc1CSc1ccc(OCC(=O)O)cc1 [Example 62, 2-{4-[({4-Methyl-2-[4-(trifluoromethyl)phenyl]-1,3-thiazol-5-yl}methyl)sulfanyl]phenoxy}acetic Acid] | –
4 | 143 | Cc1cc(SCc2sc(-c3ccc(Cl)c(Cl)c3)nc2C)ccc1OCC(=O)O [Example 75, 2-{2-Methyl-4-[({4-methyl-2-[3,4-dichlorophenyl]-1,3-thiazol-5-yl}methyl)sulfanyl]phenoxy}acetic Acid] | –
5 | 109 | Cc1cc(SCc2sc(-c3ccc(Cl)cc3)nc2C)ccc1OCC(=O)O [Example 71, 2-{2-Methyl-4-[({4-methyl-2-[4chlorophenyl]-1,3-thiazol-5-yl}methyl)sulfanyl]phenoxy}acetic Acid] | –
6 | 178 | Cc1cc(SCc2sc(-c3cc(C(F)(F)F)cc(C(F)(F)F)c3)nc2C)ccc1OCC(=O)O [Example 79, 2-{2-Methyl-4-[({4-methyl-2-[3,5-bis(trifluoromethyl)phenyl]-1,3-thiazol-5-yl}methyl)sulfanyl]phenoxy}acetic Acid] | –
7 | 45 to 46 | Cc1cc(SCc2sc(-c3ccc(F)cc3)nc2C)ccc1OCC(=O)O [Example 73, 2-{2-Methyl-4-[({4-methyl-2-[4-fluorophenyl]-1,3-thiazol-5-yl}methyl)sulfanyl]phenoxy}acetic Acid] | –
8 | 174 to 176 | Cc1cc(OCc2sc(-c3ccc(C(F)(F)F)cc3)nc2C)ccc1OCC(=O)O [Example 54, 2-[2-Methyl-4-({4-methyl-2-[4-(trifluoromethyl)phenyl]-1,3-thiazol-5-yl}methoxy)phenoxy]acetic Acid] | –
9 | 202 to 203 | Cc1nc(-c2ccc(C(F)(F)F)cc2)sc1CSc1ccc(CC(=O)O)cc1 (as salt: salt) [Example 48, 2-{4-[({4-Methyl-2-[4-(trifluoromethyl)phenyl]-1,3-thiazol-5-yl}methyl)sulfanyl]phenyl}acetic Acid] | –
10 | 181 to 182 | COc1cc(CC(=O)O)ccc1SCc1sc(-c2ccc(C(F)(F)F)cc2)nc1C (as salt: salt) [Example 52, 2-{3-Methoxy-4-[({4-methyl-2-[4-(trifluoromethyl)phenyl]-1,3-thiazol-5-yl}methyl)sulfanyl]phenyl}acetic Acid] | –
11 | 119 | Cc1cc(SCc2sc(-c3ccc(F)c(F)c3)nc2C)ccc1OCC(=O)O [Example 77, 2-{2-Methyl-4-[({4-methyl-2-[3,4-difluorophenyl]-1,3-thiazol-5-yl}methyl)sulfanyl]phenoxy}acetic Acid] | –

Further lines, the compound ahead of its results:

Row | SMILES | melting point [°C] | also measured
12 | Cc1nc(-c2cccc(C(F)(F)F)c2)oc1COc1ccc(CCC(=O)O)cc1 [Example 16, 3-[4-({4-Methyl-2-[3-(trifluoromethyl)phenyl]-1,3-oxazol-5-yl}methoxy)phenyl]propanoic Acid] | 134 to 135 | –
13 | Cc1nc(-c2ccc(C(F)(F)F)cc2)sc1COc1ccc(CC(=O)O)cc1Cl [Example 36, 2-[3-Chloro-4-({4-methyl-2-[4-(trifluoromethyl)phenyl]-1,3-thiazol-5-yl}methoxy)phenyl]acetic Acid] | 126 to 127 | –
14 | Cc1nc(-c2ccc(C(F)(F)F)cc2)oc1COc1ccc(SCC(=O)O)cc1 [Example 44, 2-{[4-({4-Methyl-2-[4-(trifluoromethyl)phenyl]-1,3-oxazol-5-yl}methoxy)phenyl]sulfanyl}acetic Acid] | 138 to 140 | –
15 | COc1cc(CCC(=O)O)ccc1OCc1oc(-c2ccc(C(F)(F)F)cc2)nc1C [Example 24] | 162 to 163 | –
16 | Cc1nc(-c2ccc(C(F)(F)F)cc2)sc1COc1ccc(N(C)CC(=O)O)cc1 [Example 38, N-Methyl-N-[4-(2-[4-Trifluromethylphenyl]-4-methyl-thiazole-5-ylmethoxy)phenyl]-acetic Acid] | 124 to 126 | stability at ambient temperature [1]: unstable and gradually decomposed at ambient temperature
17 | Cc1cc(SCc2sc(-c3ccc(C(F)(F)F)cc3)nc2C)ccc1OCC(=O)O [Example 66, 2-{2-Methyl-4-[({4-methyl-2-[4-(trifluoromethyl)phenyl]-1,3-thiazol-5-yl}methyl)sulfanyl]phenoxy}acetic Acid] | – | HDLc increase (obese rhesus monkeys; 3 mg/kg dose bid, in each monkey): more than 40%; HDLc change with each dose (obese rhesus monkeys; 0.1, 0.3, 1, and 3 mg/kg bid for 28 days each): raised HDLc with each dose; LDLc particle composition (NMR analysis of lipoprotein particles) (obese rhesus monkeys; dose escalation 0.1-3 mg/kg bid): shift in the LDLc composition to fewer and larger LDLc particles; Fasting insulin decrease (obese rhesus monkeys; in each monkey): more than 20%; Serum TG concentration decrease (obese rhesus monkeys; in each monkey): more than 30%
18 | Cc1nc(-c2ccc(C(F)(F)F)cc2)sc1CCOc1ccc(CCC(=O)O)cc1 [Example 14] | 128 to 130 | –
19 | Cc1nc(-c2ccc(C(F)(F)F)cc2)oc1COc1ccc(/C=C/C(=O)O)cc1 [Example 22, (E)-3-[4-({4-Methyl-2-[4-(trifluoromethyl)phenyl]-1,3-oxazol-5-yl}methoxy)phenyl]-2-propenoic Acid] | 193 | –
20 | Cc1nc(-c2ccc(C(F)(F)F)cc2)sc1CCOc1ccc(CC(=O)O)cc1 [Example 32] | 128 to 130 | –
21 | COC(=O)COc1ccc(SCc2sc(-c3ccc(C(F)(F)F)cc3)nc2C)cc1 [Example 61, Methyl 2-{4-[({4-Methyl-2-[4-(trifluoromethyl)phenyl]-1,3-thiazol-5-yl}methyl)sulfanyl]phenoxy}acetate] | – | Ki (hPPARδ): > 316 nM
22 | COc1cc(CCC(=O)O)ccc1OCc1sc(-c2ccc(C(F)(F)F)cc2)nc1C [Example 6, 3-[3-Methoxy-4-({4-methyl-2-[4-(trifluoromethyl)phenyl]-1,3-thiazol-5-yl}methoxy)phenyl]propanoic Acid] | 150 to 152 | –
23 | Cc1sc(-c2ccc(C(F)(F)F)cc2)nc1CCOc1ccc(CCC(=O)O)cc1 [Example 10, 3-[4-(2-{5-Methyl-2-[4-(trifluoromethyl)phenyl]-1,3-thiazol-4-yl}ethoxy)phenyl]propanoic Acid] | 142 to 147 | –
